For one assay, the system named is P. aeruginosa 1405. Description: MIC determination in Muller Hinton Agar (CLSI). It is filed as cell-based, Pseudomonas aeruginosa. As to the method: (§1) The antibacterial activity of combinations according to the invention against resistant bacterial strains was investigated. Minimum Inhibitory Concentration (MIC) determination for the combinations according to invention was carried out in Muller Hinton Agar (MHA) (BD, USA) according to Clinical and Laboratory Standards Institute (CLSI) recommendations, (Clinical and Laboratory Standards Institute (CLSI), Performance Standards for Antimicrobial Susceptibility Testing, 20th Informational Supplement, M 100-S20, Volume 30, No. 1, 2010). In short, the test strains were adjusted to deliver about 10^4 CFU per spot with a multipoint inoculator (Applied Quality Services, UK). The plates were pored with MHA containing doubling concentration range of the test combinations according to invention. The plates were inoculated and were incubated at 35° C. for 18 hours.

The subject of a further assay is P. aeruginosa 2779. As to the kind of experiment: MIC determination in Muller Hinton Agar (CLSI). It is filed as cell-based, Pseudomonas aeruginosa. As to the method:
as §1

The next assay has as its system P. aeruginosa J 154. As to the kind of experiment: MIC determination in Muller Hinton Agar (CLSI). To be noted: for MIC: Pseudomonas aeruginosa, J154, agent alone, P. aeruginosa J 154 [Reduced OprD]. It is filed as cell-based, Pseudomonas aeruginosa. As to the method: as §1
The next assay deals with P. aeruginosa R 70. Description: MIC determination in Muller Hinton Agar (CLSI). It is filed as cell-based, Pseudomonas aeruginosa. The settings on record: for MIC: Pseudomonas aeruginosa, R70, 18 h, agent alone, P. aeruginosa R 70 [Reduced OprD + increased efflux]. On the procedure:
as §1

Assay [1] has as its system Pseudomonas aeruginosa 1405. As to the kind of experiment: Time kill study. It is filed as cell-based. To be noted: P. aeruginosa 1405; for effect on bacterial counts through out the duration of the study (in words): when used alone. On the procedure: (§2) The synergistic killing effect of the combinations according to invention was studied by performing time kill studies. In a typical time kill study, the freshly grown cultures were diluted to the required cell density (initial starting inoculum) in Cation adjusted Muller Hinton broth medium (BD, USA). The antibacterial agents (either alone or in combination) at the required concentrations were added into the culture-containing medium. The samples were incubated under shaking condition (120 rpm) at 37° C. Enumeration of viable bacterial count was done every 2 hour by diluting in normal saline and plating on to the Tryptic Soya Agar plates (BD, USA). The plates were incubated for 24 hours to arrive at the viable bacterial count. The results are expressed in terms of Log10 CFU per ml. In general, the decrease of 1 Log10 CFU/ml, corresponds to 90% killing of bacteria.

In assay [2] the test system is Pseudomonas aeruginosa R70. Description: Time kill study. It is filed as cell-based. The settings on record: P. aeruginosa R70; for effect on bacterial counts through out the duration of the study (in words): when used alone. As to the method:
as §2

In assay [3] the test system is highly resistant strains of Pseudomonas aeruginosa. As to the kind of experiment: MIC determination, all strains. It is filed as cell-based. To be noted: when used alone; highly resistant strains of P. aeruginosa. As to the method: as §1
The results on antibacterial activity of a carbapenem antibacterial agent selected from imipenem, meropenem, ertapenem and doripenem alone and in combination with Compound A or Compound B, against highly resistant strains of Pseudomonas aeruginosa are given in Table 1. […] For example, P. aeruginosa 2779 harbors resistance due to increased AmpC expression (300 times) and increased efflux; P. aeruginosa 1405 harbors resistance due to increased AmpC expression (600 times), reduced OprD expression and increased efflux; P. aeruginosa R 70 harbors resistance due to reduced OprD expression and increased efflux; and P. aeruginosa J 154 harbors resistance due to reduced OprD.

Setting [4] is: in presence of Compound A at 4 mcg/ml.
[5] abbreviates: in presence of Compound B at 4 mcg/ml.

On to `C[C@@H](O)[C@H]1C(=O)N2C(C(=O)O)=C(SCCN=CN)C[C@H]12` [Imipenem, imipenem], for which the “MIC (mcg/ml) of carbapenem in presence of [A] at 4 mcg/ml” value in the assay with P. aeruginosa 1405 (setting [4]) was 1 µg/mL; in the assay on P. aeruginosa 2779 (setting [4]), not above 0.25 µg/mL; in the assay with P. aeruginosa J 154 (in presence of Compound A at 4 mcg/ml, P. aeruginosa J 154), 4 µg/mL; in the assay on P. aeruginosa R 70 (in presence of Compound A at 4 mcg/ml, P. aeruginosa R 70), 2 µg/mL. Also, the “MIC (mcg/ml) of carbapenem in presence of [B] at 4 mcg/ml” value with P. aeruginosa 1405 (setting [5]) is 1 µg/mL; with P. aeruginosa 2779 (setting [5]), 0.12 µg/mL; in the assay on P. aeruginosa J 154 (in presence of Compound B at 4 mcg/ml, P. aeruginosa J 154) it was 0.5 µg/mL; with P. aeruginosa R 70 (in presence of Compound B at 4 mcg/ml, P. aeruginosa R 70) it was not above 0.12 µg/mL. The MIC in the assay with P. aeruginosa J 154 came to 16 µg/mL; with P. aeruginosa R 70, 8 µg/mL. For the same compound, the “Bacterial count (Log10 CFU/ml) 0 hour” value in assay [1] (Table 2, single agent 4 mcg/ml) was 6.84 Log10 CFU/ml; in assay [1] (Table 3, single agent 4 mcg/ml), 6.81 Log10 CFU/ml; in assay [2] (Table 4, single agent 2 mcg/ml), 6.62 Log10 CFU/ml; in assay [2] (Table 5, single agent 2 mcg/ml), 6.44 Log10 CFU/ml. Further, the “Bacterial count (Log10 CFU/ml) 2 hour” value is on record as 6.39 Log10 CFU/ml in assay [1] (Table 2, single agent 4 mcg/ml); 6.4 Log10 CFU/ml in assay [1] (Table 3, single agent 4 mcg/ml); 5.7 Log10 CFU/ml in assay [2] (Table 4, single agent 2 mcg/ml); 5.6 Log10 CFU/ml in assay [2] (Table 5, single agent 2 mcg/ml). Further, the “Bacterial count (Log10 CFU/ml) 4 hour” value in assay [1] (Table 2, single agent 4 mcg/ml) is recorded as 7.04 Log10 CFU/ml; in assay [1] (Table 3, single agent 4 mcg/ml), 7.78 Log10 CFU/ml; in assay [2] (Table 4, single agent 2 mcg/ml), 5.98 Log10 CFU/ml. Further, the “Bacterial count (Log10 CFU/ml) 6 hour” value in assay [1] (Table 2, single agent 4 mcg/ml) is 8.16 Log10 CFU/ml; in assay [1] (Table 3, single agent 4 mcg/ml), 7.93 Log10 CFU/ml; in assay [2] (Table 4, single agent 2 mcg/ml), 6.78 Log10 CFU/ml; in assay [2] (Table 5, single agent 2 mcg/ml), 6.3 Log10 CFU/ml. Also, the “Bacterial count (Log10 CFU/ml) 4 hours” value in assay [2] (Table 5, single agent 2 mcg/ml) worked out at 5.8 Log10 CFU/ml.
For the compound `O=C(NNC(=O)[C@@H]1CC[C@@H]2CN1C(=O)N2OS(=O)(=O)O)[C@@H]1CCCNC1` [Compound A, trans-sulfuric acid mono-[2-(N′-[(R)-piperidin-3-carbonyl]-hydrazinocarbonyl)-7-oxo-1,6-diaza-bicyclo[3.2.1]oct-6-yl]ester], the MIC is 16 µg/mL in the assay with P. aeruginosa J 154 and 8 µg/mL in the assay on P. aeruginosa R 70. Also, the “effect on bacterial counts through out the duration of the study (in words)” value in assay [1] and in assay [2] was “failed to reduce the bacterial counts” throughout. Besides, the “Bacterial count (Log10 CFU/ml) 0 hour” value in assay [1] (Table 2, single agent 4 mcg/ml) was 6.84 Log10 CFU/ml; in assay [1] (Table 2, single agent 8 mcg/ml), 6.84 Log10 CFU/ml; in assay [2] (Table 4, single agent 4 mcg/ml), 6.62 Log10 CFU/ml; in assay [2] (Table 4, single agent 8 mcg/ml) it was 6.62 Log10 CFU/ml. Moreover, the “Bacterial count (Log10 CFU/ml) 2 hour” value in assay [1] (Table 2, single agent 4 mcg/ml) came out at 6.81 Log10 CFU/ml; in assay [1] (Table 2, single agent 8 mcg/ml) it was 6.48 Log10 CFU/ml; in assay [2] (Table 4, single agent 4 mcg/ml), 7.07 Log10 CFU/ml; in assay [2] (Table 4, single agent 8 mcg/ml), 6.9 Log10 CFU/ml. In addition, the “Bacterial count (Log10 CFU/ml) 4 hour” value worked out at 7.84 Log10 CFU/ml in assay [1] (Table 2, single agent 4 mcg/ml); 7.4 Log10 CFU/ml in assay [1] (Table 2, single agent 8 mcg/ml); 8.35 Log10 CFU/ml in assay [2] (Table 4, single agent 4 mcg/ml); 7.11 Log10 CFU/ml in assay [2] (Table 4, single agent 8 mcg/ml). Moreover, the “Bacterial count (Log10 CFU/ml) 6 hour” value came to 8.06 Log10 CFU/ml in assay [1] (Table 2, single agent 4 mcg/ml); 7.54 Log10 CFU/ml in assay [1] (Table 2, single agent 8 mcg/ml); 8.48 Log10 CFU/ml in assay [2] (Table 4, single agent 4 mcg/ml); 7.16 Log10 CFU/ml in assay [2] (Table 4, single agent 8 mcg/ml). In addition, the “MIC values (in words)” value in assay [3] is “higher MIC values”.
In the case of `O=C(NNC(=O)[C@@H]1CC[C@@H]2CN1C(=O)N2OS(=O)(=O)O)[C@@H]1CCNC1` [Compound B, trans-sulfuric acid mono-[2-(N′-[(R)-pyrrolidin-3-carbonyl]-hydrazinocarbonyl)-7-oxo-1,6-diaza-bicyclo[3.2.1]oct-6-yl]ester], the MIC is 8 µg/mL with P. aeruginosa J 154 and 2 µg/mL in the assay with P. aeruginosa R 70. Further, the “effect on bacterial counts through out the duration of the study (in words)” value in assay [1] and in assay [2] was “failed to reduce the bacterial counts” in each case. Moreover, the “Bacterial count (Log10 CFU/ml) 0 hour” value in assay [1] (Table 3, single agent 2 mcg/ml) is 6.81 Log10 CFU/ml; in assay [1] (Table 3, single agent 4 mcg/ml) it was 6.81 Log10 CFU/ml; in assay [2] (Table 5, single agent 2 mcg/ml) it was 6.44 Log10 CFU/ml; in assay [2] (Table 5, single agent 4 mcg/ml), 6.44 Log10 CFU/ml. Moreover, the “Bacterial count (Log10 CFU/ml) 2 hour” value in assay [1] (Table 3, single agent 2 mcg/ml) is listed as 6.48 Log10 CFU/ml; in assay [1] (Table 3, single agent 4 mcg/ml), 6.54 Log10 CFU/ml; in assay [2] (Table 5, single agent 2 mcg/ml), 7.11 Log10 CFU/ml; in assay [2] (Table 5, single agent 4 mcg/ml) it was 6.2 Log10 CFU/ml. For the same compound, the “Bacterial count (Log10 CFU/ml) 4 hour” value in assay [1] (Table 3, single agent 2 mcg/ml) is on record as 7.6 Log10 CFU/ml; in assay [1] (Table 3, single agent 4 mcg/ml) it was 6.65 Log10 CFU/ml. Further, the “Bacterial count (Log10 CFU/ml) 6 hour” value in assay [1] (Table 3, single agent 2 mcg/ml) was 7.5 Log10 CFU/ml; in assay [1] (Table 3, single agent 4 mcg/ml), 6.7 Log10 CFU/ml; in assay [2] (Table 5, single agent 2 mcg/ml) it was 7.6 Log10 CFU/ml; in assay [2] (Table 5, single agent 4 mcg/ml), 6.0 Log10 CFU/ml. Besides, the “Bacterial count (Log10 CFU/ml) 4 hours” value is listed as 7.3 Log10 CFU/ml in assay [2] (Table 5, single agent 2 mcg/ml) and 6.4 Log10 CFU/ml in assay [2] (Table 5, single agent 4 mcg/ml). Moreover, in assay [3], the “MIC values (in words)” value is listed as “higher MIC values”.

(Values after US20180104224A1, “PHARMACEUTICAL COMPOSITIONS COMPRISING ANTIBACTERIAL AGENTS” (priority 2014, published 2018).)
